Assay results reported in patent US11180452B2, “Methods and compositions for selectively inhibiting pathogenic microbes” (priority 2019, dated 2021).
Values after ≈ are worked out from the molar mass of the structure shown. Read-outs that look alike come from different tables or passages of the source.

Assays:
C. albicans = experiment: Candida albicans MIC / MFC; type: cell-based
[1] = test system: Francisella tularensis subsp. Holarctica Strain LVSR NR-597; experiment: microbe, parasite or virus in culture; type: cell-based
Bacillus thuringiensis = type: cell-based; conditions: for MIC: Bacillus thuringiensis
Bacillus subtilis = Bacillus subtilis MIC / MBC; type: cell-based; conditions: for MBC: Bacillus subtilis NRRL: B-571, minimum bactericidal concentration; for MIC: Bacillus subtilis
[2] = test system: Burkholderia thailandensis Brett et al ATCC: 700388; experiment: microbe, parasite or virus in culture; type: cell-based
Candida glabrata = Candida glabrata MIC / MFC; type: cell-based; conditions: Nakaseomyces glabratus
Trichophyton rubrum = experiment: MIC against Trichophyton rubrum; type: cell-based; conditions: Trichophyton rubrum Castellani Sabouraud ATCC: 28188; read-out: MIC
NoSpin HepaRG cells = experiment: HepaRG cytotoxicity, MTT assay EC50; type: cell-based, human; conditions: Homo sapiens, HepaRG; cytotoxicity EC50, Table 9
Protocol: Additionally, the antimicrobial compounds were analyzed for cytotoxicity. […] We utilized the standard MTT assay (Promega CellTiter 96) and GraphPad Prism 7 software to determine EC50 values for each analogue. Briefly, 20,000 HepG2 cells in 200 μl of the ATCC recommended media were seeded in each well of a 96-well plate with a moisture barrier created in the outermost wells. The cells were allowed to attach overnight at 37° C., and then observed under phase contrast microscopy for proper morphological characteristics. […] Once incubations were complete, the spectrophotometric absorbance of the samples was measured at a wavelength of 595 nm. […] For the HepaRG assay, NoSpin HepaRG™ cells (Lonza, cat #NSHPRG) were thawed and plated with 20,000 cells per well. They were allowed to attach for 4 h (optimal DME profile per Lonza's testing) before dosing following the identical protocol as above.

[3] = Bacillus thuringiensis Berliner ATCC: 10792
[4] = Bacillus thuringiensis Berliner ATCC: 10792, read-out: MIC
[5] = Bacillus subtilis (Ehrenberg 1835) Cohn 1872 NRRL: B-571, read-out: MIC
[6] = Candida glabrata #584 (Table 2), read-out: MIC
[7] = strain B-1985, read-out: Bacillus subtilis MIC
[8] = strain B-3665, read-out: Bacillus subtilis MIC
[9] = strain B-14322, read-out: Bacillus subtilis MIC
[10] = strain B-41090, read-out: Bacillus subtilis MIC
[11] = strain B-41581, read-out: Bacillus subtilis MIC
[12] = strain BD-594, read-out: Bacillus subtilis MIC
[13] = C. albicans strain #761, read-out: MIC
[14] = C. albicans strain #762, read-out: MIC
[15] = C. glabrata strain #325, read-out: MIC
[16] = C. glabrata strain #584 (Table 7), read-out: MIC
[17] = C. albicans strain #761, read-out: MFC
[18] = C. albicans strain #762, read-out: MFC

Row | SMILES | MIC [1] [µg/mL] | MBC (Bacillus thuringiensis; [3]) [µg/mL] | MIC (Bacillus thuringiensis; [4]) [µg/mL] | MBC (Bacillus subtilis) [µg/mL] | MIC (Bacillus subtilis; [5]) [µg/mL] | MIC [2] [µg/mL] | MIC (Candida glabrata; [6]) [µg/mL] | MIC (Trichophyton rubrum) [µg/mL] | MIC (C. albicans; [13]) [µg/mL] | MIC (C. albicans; [14]) [µg/mL] | MIC (Candida glabrata; [15]) [µg/mL] | MIC (Candida glabrata; [16]) [µg/mL] | other results
1 | Fc1ccc2c(Sc3ccc(Br)cc3)c[nH]c2c1 [Compound 172A, 3-((4-bromophenyl)thio)-6-fluoro-1H-indole] | 0.78 (≈ 2.42 µM) | 1.56 (≈ 4.84 µM) | 1.56 (≈ 4.84 µM) | > 50 | 1.56 (≈ 4.84 µM) | > 50 | 1.56 (≈ 4.84 µM) | 9.52 (≈ 29.5 µM) | – | – | – | – | MFC (C. albicans; C. albicans strain #761): 12.5 µg/mL (≈ 38.8 µM); MIC (C. albicans; C. albicans strain #761): 3.13 µg/mL (≈ 9.71 µM); MFC (C. albicans; C. albicans strain #762): 6.25 µg/mL (≈ 19.4 µM); MIC (C. albicans; C. albicans strain #762): 1.56 µg/mL (≈ 4.84 µM); MFC (Candida glabrata; C. glabrata strain #325): 12.5 µg/mL (≈ 38.8 µM); MIC (Candida glabrata; C. glabrata strain #325): 6.25 µg/mL (≈ 19.4 µM); MFC (Candida glabrata; Candida glabrata #584 (Table 2), minimum fungicidal concentration, read-out: MFC): 3.13 µg/mL (≈ 9.71 µM)
2 | Cc1c(Sc2ccc(Br)cc2)[nH]c2ccccc12 [Compound 172B, 2-((4-bromophenyl)thio)-3-methyl-1H-indole] | 3.13 (≈ 9.84 µM) | 25 (≈ 78.6 µM) | 6.25 (≈ 19.6 µM) | 25 (≈ 78.6 µM) | 6.25 (≈ 19.6 µM) | – | 50 (≈ 157 µM) | 15.6 (≈ 49 µM) | – | – | – | – | –
3 | Brc1ccc(Sc2c[nH]c3ccc(Br)cc23)cc1 [Compound 172D, 5-bromo-3-((4-bromophenyl)thio)-1H-indole] | 1.25 (≈ 3.26 µM) | 10 (≈ 26.1 µM) | 1.25 (≈ 3.26 µM) | 5 (≈ 13.1 µM) | 1.25 (≈ 3.26 µM) | 100 (≈ 261 µM) | > 50 | 1.18 (≈ 3.08 µM) | – | – | – | – | MIC (Bacillus thuringiensis; ATCC10792, […]): 1.25 µg/mL (≈ 3.26 µM); MIC (Bacillus thuringiensis; strain B-1596): 2.5 µg/mL (≈ 6.53 µM); MIC (Bacillus subtilis; strain B-571 (Table 4), read-out: Bacillus subtilis MIC): 1.25 µg/mL (≈ 3.26 µM); MIC (Bacillus subtilis; [7]): 1.25 µg/mL (≈ 3.26 µM); MIC (Bacillus subtilis; [8]): 1.25 µg/mL (≈ 3.26 µM); MIC (Bacillus subtilis; [9]): 1.25 µg/mL (≈ 3.26 µM); MIC (Bacillus subtilis; [10]): 2.5 µg/mL (≈ 6.53 µM); MIC (Bacillus subtilis; [11]): 1.25 µg/mL (≈ 3.26 µM); MIC (Bacillus subtilis; [12]): 2.5 µg/mL (≈ 6.53 µM); MBC [2]: > 150 µg/mL
4 | [O-][S+](c1ccc(Br)cc1)c1c[nH]c2ccc(Br)cc12 (centres unmarked) [Compound 172I, 5-bromo-3-((4-bromophenyl)sulfinyl)-1H-indole] | 20 (≈ 50.1 µM) | 40 (≈ 100 µM) | 10 (≈ 25.1 µM) | 10 (≈ 25.1 µM) | 10 (≈ 25.1 µM) | – | > 40 | 9.92 (≈ 24.9 µM) | – | – | – | – | –
5 | O=S(=O)(c1ccc(Br)cc1)c1c[nH]c2ccc(Br)cc12 [Compound 172J, 5-bromo-3-((4-bromophenyl)sulfonyl)-1H-indole] | 6.25 (≈ 15.1 µM) | 3.13 (≈ 7.54 µM) | 1.56 (≈ 3.76 µM) | 6.25 (≈ 15.1 µM) | 3.13 (≈ 7.54 µM) | > 50 | > 50 | 10.3 (≈ 24.8 µM) | – | – | – | – | –
6 | Brc1ccc(Sc2c[nH]c3cc(Br)c(Br)cc23)cc1 [Compound 174AB, 5,6-dibromo-3-((4-bromophenyl)thio)-1H-indole] | 4 (≈ 8.66 µM) | 8 (≈ 17.3 µM) | 2 (≈ 4.33 µM) | 16 (≈ 34.6 µM) | 4 (≈ 8.66 µM) | > 50 | 3.13 (≈ 6.77 µM) | – | > 50 | > 50 | > 50 | 3.13 (≈ 6.77 µM) | MIC (Bacillus thuringiensis; strain B-1596): 4 µg/mL (≈ 8.66 µM); MIC (Bacillus subtilis; [7]): 4 µg/mL (≈ 8.66 µM); MIC (Bacillus subtilis; [8]): 2 µg/mL (≈ 4.33 µM); MIC (Bacillus subtilis; [9]): 2 µg/mL (≈ 4.33 µM); MIC (Bacillus subtilis; [10]): 4 µg/mL (≈ 8.66 µM); MIC (Bacillus subtilis; [11]): 2 µg/mL (≈ 4.33 µM); MIC (Bacillus subtilis; [12]): 4 µg/mL (≈ 8.66 µM)
7 | Brc1ccc(Sc2c[nH]c3cc(Br)cc(Br)c23)cc1 [Compound 174AE, 4,6-dibromo-3-((4-bromophenyl)thio)-1H-indole] | 4 (≈ 8.66 µM) | > 50 | 2 (≈ 4.33 µM) | 4 (≈ 8.66 µM) | 2 (≈ 4.33 µM) | > 50 | 25 (≈ 54.1 µM) | – | 50 (≈ 108 µM) | 6.25 (≈ 13.5 µM) | 12.5 (≈ 27.1 µM) | 25 (≈ 54.1 µM) | MFC (C. albicans; [17]): > 50 µg/mL; MFC (C. albicans; [18]): 25 µg/mL (≈ 54.1 µM); MFC (Candida glabrata; C. glabrata strain #325, read-out: MFC): > 50 µg/mL
8 | Brc1ccc2[nH]cc(Sc3c[nH]c4ccccc34)c2c1 [Compound 174AL, 3-((1H-indol-3-yl)thio)-5-bromo-1H-indole] | – | > 50 | – | – | – | > 50 | – | – | – | – | – | – | EC50 (NoSpin HepaRG cells): 26.1 µg/mL (≈ 76 µM)
9 | FC(F)(F)c1ccc2[nH]cc(Sc3ccccc3Br)c2c1 [Compound 174AX, 3-((2-bromophenyl)thio)-5-(trifluoromethyl)-1H-indole] | 1 (≈ 2.69 µM) | 2 (≈ 5.37 µM) | 1 (≈ 2.69 µM) | 8 (≈ 21.5 µM) | 0.5 (≈ 1.34 µM) | – | 12.5 (≈ 33.6 µM) | – | 12.5 (≈ 33.6 µM) | 6.25 (≈ 16.8 µM) | > 50 | 12.5 (≈ 33.6 µM) | MFC (C. albicans; [17]): 50 µg/mL (≈ 134 µM); MFC (C. albicans; [18]): 12.5 µg/mL (≈ 33.6 µM)
10 | Brc1ccc(Sc2c[nH]c3c(Br)cccc23)cc1 [Compound 174H, 7-bromo-3-((4-bromophenyl)thio)-1H-indole] | 3.13 (≈ 8.17 µM) | 12.5 (≈ 32.6 µM) | 6.25 (≈ 16.3 µM) | > 50 | 3.13 (≈ 8.17 µM) | > 50 | 12.5 (≈ 32.6 µM) | 2.38 (≈ 6.21 µM) | – | – | – | – | –
